The source of these data is US20230280220A1, “Benzimidazole Derivative Compounds and Uses Thereof” (Pfizer Inc., priority 2019, published 2023).

The structures appear in SMILES notation.

Sequence of ITK enzyme (ITK FL, N-Flag and C-His tagged) (Q08881 whole entry): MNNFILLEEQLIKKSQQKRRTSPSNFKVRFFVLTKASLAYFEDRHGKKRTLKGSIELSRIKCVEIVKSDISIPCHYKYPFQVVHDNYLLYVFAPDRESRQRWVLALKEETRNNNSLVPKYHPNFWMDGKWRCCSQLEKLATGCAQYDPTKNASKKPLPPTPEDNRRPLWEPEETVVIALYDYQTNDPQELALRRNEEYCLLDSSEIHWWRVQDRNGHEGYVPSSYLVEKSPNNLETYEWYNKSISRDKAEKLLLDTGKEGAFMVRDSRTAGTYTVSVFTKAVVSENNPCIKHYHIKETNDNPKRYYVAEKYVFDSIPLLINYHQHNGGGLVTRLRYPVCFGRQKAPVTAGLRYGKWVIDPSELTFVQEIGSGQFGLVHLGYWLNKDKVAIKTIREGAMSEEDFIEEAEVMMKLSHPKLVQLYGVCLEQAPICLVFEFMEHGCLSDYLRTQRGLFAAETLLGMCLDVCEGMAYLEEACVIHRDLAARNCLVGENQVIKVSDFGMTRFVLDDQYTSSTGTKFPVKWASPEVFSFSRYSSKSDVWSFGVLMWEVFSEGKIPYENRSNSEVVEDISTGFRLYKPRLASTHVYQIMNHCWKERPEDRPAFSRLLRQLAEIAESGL

This test concerns the target ITK enzyme (ITK FL, N-Flag and C-His tagged) (Homo sapiens (Human), UniProt Q08881). As to the kind of experiment: ITK enzyme assay (IL-2-inducible T-cell kinase activity). Format: biochemical. The conditions noted are these: geometric mean of count n. The procedure:
IL-2-Inducible T-Cell Kinase (ITK) Activity, IC50 (nM)
ITK activity was determined by measuring the effect of a test compound in an ITK enzyme assay.
1.0 M HEPES Buffer pH 7.5 solution was prepared as follows: 238.3 g HEPES free acid (Sigma) and 800 mL of water were combined, and the mixture was stirred until complete dissolution. The pH was adjusted to 7.5 via titration with 5N NaOH and the volume adjusted to 1000 mL. The solution was filtered and sterilized.
ITK assay buffer was prepared as follows: 50 mL of HPLC-grade water was treated with 2 mL of 1.0 M HEPES Buffer, 500 μL of 2% Gelatin (Sigma), 1.0 mL of aqueous MgCl2 solution (1.0 M), and 1.0 mL of aqueous glutathione solution (0.5 M), and the solution was mixed. The solution was brought to 99 mL in a graduated cylinder by addition of water and sterilized through a 0.2 μm filter. 0.1 mL of Brij-35™ Surfact-Amps™ Detergent Solution (10% w/v aqueous solution, ThermoFisher) and 1.0 mL of ATP (Teknova, 100 mM) were added and the solution was mixed.
The resulting solution was stored on ice. 30 Minutes prior to use, the enzyme solution was removed from ice and equilibrated to RT by incubation in a RT water bath.
Preparation of 4×ITK substrate solution was as follows: 50 mL of ITK assay buffer was treated with 100 μL of BTK peptide (China Peptide Company, 2 mM stock solution in DMSO). The tube was capped, mixed by gently inverting the tube, and then stored on ice. 30 Minutes prior to use, the substrate solution was removed from ice and equilibrated to RT by incubation in a RT water bath.
At the time of assay, 7.5 μL of the 1.33×ITK enzyme solution was added to plate wells containing 0.1 μL of varying concentrations of test compound in DMSO. The plate was incubated 30 min at RT. The plate wells were each treated with 2.5 uL of the 4×ITK substrate solution and the plate was sealed (TopSeal™, Perkin Elmer). The plate was spun at 1000 rpm for 30 sec and then incubated for 60 min at RT. The seal was removed, and each well was treated with 10 μL of Stop/Detect Buffer (20 mM HEPES pH 7.5, 0.01% gelatin, 1 nM LANCE PT66 (Perkin Elmer), 16.5 μg/ml Surelight APC (Perkin Elmer), 10 mM EDTA, 250 mM NaCl). The plate was again covered and was spun at 1000 rpm for 30 seconds. The plate was allowed to incubate overnight at RT and in a closed carrier to reduce dehydration. The seal was removed, and the fluorescence was read with a plate reader with an excitation wavelength of […] and an emission wavelength of 615 nm.
In general, IC50 refers to the concentration that inhibits the measured activity by half. Lower therefore signals greater potency in that assay. In the case of `Cc1cc2[nH]c(-c3n[nH]c4c3C[C@@H]3C[C@]3(C)C4)nc2cc1N(C)C(=O)[C@H](C)C1CCOCC1` [Example 4, (R)—N-methyl-N-(6-methyl-2-((4aS,5aR)-5a-methyl-1,4,4a,5,5a,6-hexahydrocyclopropa[f]indazol-3-yl)-1H-benzo[d]imidazol-5-yl)-2-(tetrahydro-2H-pyran-4-yl)propanamide], the IC50 came out at 3 nM.

In turn, `Cc1cc2[nH]c(-c3n[nH]c4c3C[C@@H]3C[C@]3(C)C4)nc2cc1N(C)C(=O)C(C)C1CCOCC1` (stereo partly drawn) [Example 5, N-methyl-N-(6-methyl-2-((4aS,5aR)-5a-methyl-1,4,4a,5,5a,6-hexahydrocyclopropa[f]indazol-3-yl)-1H-benzo[d]imidazol-5-yl)-2-(tetrahydro-2H-pyran-4-yl)propanamide] yielded an IC50 of 5 nM.

`CCN(C(=O)[C@H](C)N1CCOCC1)c1cc2nc(-c3n[nH]c4c3C[C@@H]3C[C@]3(C)C4)[nH]c2cc1C` [Example 6, (S)—N-ethyl-N-(6-methyl-2-((4aS,5aR)-5a-methyl-1,4,4a,5,5a,6-hexahydrocyclopropa[f]indazol-3-yl)-1H-benzo[d]imidazol-5-yl)-2-morpholinopropanamide] had an IC50 of 11 nM.

The compound `CN(C(=O)CC1CCOCC1)c1ccc2[nH]c(-c3n[nH]c4c3C[C@@H]3C[C@]3(C)C4)nc2c1` [Example 10, N-methyl-N-(2-((4aS,5aR)-5a-methyl-1,4,4a,5,5a,6-hexahydrocyclopropa[f]indazol-3-yl)-1H-benzo[d]imidazol-5-yl)-2-(tetrahydro-2H-pyran-4-yl)acetamide] came in with an IC50 of 7 nM.

`C[C@@H](C(=O)N(C)c1cc(F)c2[nH]c(-c3n[nH]c4c3C[C@@H]3C[C@]3(C)C4)nc2c1)C1CCOCC1` [Example 12, (R)—N-(7-fluoro-2-((4aS,5aR)-5a-methyl-1,4,4a,5,5a,6-hexahydrocyclopropa[f]indazol-3-yl)-1H-benzo[d]imidazol-5-yl)-N-methyl-2-(tetrahydro-2H-pyran-4-yl)propanamide] yielded an IC50 of 3 nM.

Take `C[C@@H](C(=O)N(C)c1ccc2[nH]c(-c3n[nH]c4c3C[C@@H]3C(F)(F)[C@]3(C)C4)nc2c1)N1CCOCC1` [Example 13, (S)—N-(2-((4aS,5aR)-5,5-difluoro-5a-methyl-1,4,4a,5,5a,6-hexahydrocyclopropa[f]indazol-3-yl)-1H-benzo[d]imidazol-5-yl)-N-methyl-2-morpholinopropanamide]: half-maximal inhibition (IC50) required 1 nM.

The compound `C[C@@H](C(=O)N(C)c1ccc2[nH]c(-c3n[nH]c4c3C[C@@H]3C[C@]3(C)C4)nc2c1)N1CCOCC1` [Example 14, (S)—N-methyl-N-(2-((4aS,5aR)-5a-methyl-1,4,4a,5,5a,6-hexahydrocyclopropa[f]indazol-3-yl)-1H-benzo[d]imidazol-5-yl)-2-morpholinopropanamide] displayed an IC50 of 3 nM.

For `C[C@@H](C(=O)N(C)c1cc(F)c2[nH]c(-c3n[nH]c4c3C[C@@H]3C[C@]3(C)C4)nc2c1)N1CCOCC1` [Example 15, (S)—N-(7-fluoro-2-((4aS,5aR)-5a-methyl-1,4,4a,5,5a,6-hexahydrocyclopropa[f]indazol-3-yl)-1H-benzo[d]imidazol-5-yl)-N-methyl-2-morpholinopropanamide], the IC50 turned out to be 4 nM.

As to `CCN(C(=O)[C@H](C)N1CCOCC1)c1cc(F)c2[nH]c(-c3n[nH]c4c3C[C@@H]3C[C@]3(C)C4)nc2c1` [Example 16, (S)—N-ethyl-N-(7-fluoro-2-((4aS,5aR)-5a-methyl-1,4,4a,5,5a,6-hexahydrocyclopropa[f]indazol-3-yl)-1H-benzo[d]imidazol-5-yl)-2-morpholinopropanamide], the IC50 turned out to be 5 nM.

Consider `C[C@@H](C(=O)N(C)c1cc2nc(-c3n[nH]c4c3C[C@@H]3C[C@]3(C)C4)[nH]c2cc1F)N1CCOCC1` [Example 17, (S)—N-(6-fluoro-2-((4aS,5aR)-5a-methyl-1,4,4a,5,5a,6-hexahydrocyclopropa[f]indazol-3-yl)-1H-benzo[d]imidazol-5-yl)-N-methyl-2-morpholinopropanamide], for which the IC50 stood at 5 nM.

Compound `COc1cc2[nH]c(-c3n[nH]c4c3C[C@@H]3C[C@]3(C)C4)nc2cc1N(C)C(=O)[C@H](C)N1CCOCC1` [Example 19, (S)—N-(6-methoxy-2-((4aS,5aR)-5a-methyl-1,4,4a,5,5a,6-hexahydrocyclopropa[f]indazol-3-yl)-1H-benzo[d]imidazol-5-yl)-N-methyl-2-morpholinopropanamide] registered an IC50 of 9 nM.

In the case of `C[C@@H](C(=O)N(C)c1cc2nc(-c3n[nH]c4c3C[C@@H]3C[C@]3(C)C4)[nH]c2cc1Br)N1CCOCC1` [Example 20, (S)—N-(6-bromo-2-((4aS,5aR)-5a-methyl-1,4,4a,5,5a,6-hexahydrocyclopropa[f]indazol-3-yl)-1H-benzo[d]imidazol-5-yl)-N-methyl-2-morpholinopropanamide], it took 5 nM to reach half-maximal inhibition (IC50).

`C[C@@H](C(=O)N(C)c1cc2nc(-c3n[nH]c4c3C[C@@H]3C[C@]3(C)C4)[nH]c2cc1C#N)N1CCOCC1` [Example 21, (S)—N-(6-cyano-2-((4aS,5aR)-5a-methyl-1,4,4a,5,5a,6-hexahydrocyclopropa[f]indazol-3-yl)-1H-benzo[d]imidazol-5-yl)-N-methyl-2-morpholinopropanamide] showed an IC50 of 9 nM.

On to `C[C@@H](C(=O)N(C)c1cc2nc(-c3n[nH]c4c3C[C@@H]3C[C@]3(C)C4)[nH]c2c(F)c1F)N1CCOCC1` [Example 24, (S)—N-(6,7-difluoro-2-((4aS,5aR)-5a-methyl-1,4,4a,5,5a,6-hexahydrocyclopropa[f]indazol-3-yl)-1H-benzo[d]imidazol-5-yl)-N-methyl-2-morpholinopropanamide], for which half-maximal inhibition (IC50) was put at 8 nM.

`CCN(C(=O)[C@H](C)N1CCOCC1)c1cc2nc(-c3n[nH]c4c3C[C@@H]3C[C@]3(C)C4)[nH]c2c(F)c1F` [Example 25, (S)—N-(6,7-difluoro-2-((4aS,5aR)-5a-methyl-1,4,4a,5,5a,6-hexahydrocyclopropa[f]indazol-3-yl)-1H-benzo[d]imidazol-5-yl)-N-ethyl-2-morpholinopropanamide] returned an IC50 of 13 nM.

`Cc1cc2[nH]c(-c3n[nH]c4c3C[C@@H]3C[C@]3(C)C4)nc2cc1N(C)C(=O)CN1CCO[C@H](CO)C1` [Example 26, 2-((S)-2-(hydroxymethyl)morpholino)-N-methyl-N-(6-methyl-2-((4aS,5aR)-5a-methyl-1,4,4a,5,5a,6-hexahydrocyclopropa[f]indazol-3-yl)-1H-benzo[d]imidazol-5-yl)acetamide] showed an IC50 of 12 nM.

Turning to `Cc1cc2[nH]c(-c3n[nH]c4c3C[C@@H]3C[C@]3(C)C4)nc2cc1N(C)C(=O)CN1CCOC(CO)C1` (stereo partly drawn) [Example 27, 2-(2-(Hydroxymethyl)morpholino)-N-methyl-N-(6-methyl-2-((4aS,5aR)-5a-methyl-1,4,4a,5,5a,6-hexahydrocyclopropa[f]indazol-3-yl)-1H-benzo[d]imidazol-5-yl)acetamide], the IC50 is 17 nM.

`Cc1cc2[nH]c(-c3n[nH]c4c3C[C@@H]3C[C@]3(C)C4)nc2cc1N(C)C(=O)CN1CCO[C@@H](CO)C1` [Example 28, 2-((R)-2-(Hydroxymethyl)morpholino)-N-methyl-N-(6-methyl-2-((4aS,5aR)-5a-methyl-1,4,4a,5,5a,6-hexahydrocyclopropa[f]indazol-3-yl)-1H-benzo[d]imidazol-5-yl)acetamide] displayed an IC50 of 19 nM.
